Reference: the supplement of paper PMC11208160

experiment: recombinant barcode read abundance after kanamycin selection (control-corrected) (log10(CPM+1)); higher = more efficient recombination; sequences stand for … in AGTGCAGAGAAAATCGGCCAGTTTTCTCTGCCTGCAGTCCGCATGCCGT…AGATTTATGCAGCGGACTGCCTTTCTCCCAAAGTGATAAACCGGACAGTATCATGGACCGGTTTTCCCGGTAATCCGTATTTGCAAGGTTGGTTTCACT; site = the 11-nt target
Method in brief: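 A promoter, a target, a barcode and the first 104 bridge RNA bases under J23119 made up each oligo. Oligos were Gibson-cloned into a vector bearing the other 73 bp and a T7-inducible recombinase, then co-electroporated into E. coli with a donor plasmid and plated in duplicate on chloramphenicol/ampicillin LB agar (control) or chloramphenicol/ampicillin/kanamycin with 0.1 mM IPTG. Recombination efficiency is the averaged, control-corrected counts per million of recombinant-junction barcodes. Reported values are log10(CPM+1).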
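Further: IS621 recombinase and bridge RNA in Escherichia coli cells.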

| Sequence | recombinant barcode read abundance (log10) |
| --- | --- |
| GGAATGCCTTGGGTTCTAACCTGTTGCCT (site GGAATTCCTAG) | 0.0966 |
| GGAATGTCTTGGGTTCTAACCTGTTGCCT (site GAAATGTCTAG) | 0.344 |
| GGAATGTCTTGGGTTCTAACCTGTTGCCT (site GCAATGTCTAG) | 0.0847 |
| GGAATGTCTTGGGTTCTAACCTGTTGCCT (site GGAATGTCTAG) | 2.09 |
| GGAATGTCTTGGGTTCTAACCTGTTGCCT (site GTAATGTCTAG) | 0.0368 |
| GGAATTCCTTGGGTTCTAACCTGTTGCCT (site GGAATACCTAG) | 0.129 |
| GGAATTCCTTGGGTTCTAACCTGTTGCCT (site GGAATCCCTAG) | 0 |
| GGAATTCCTTGGGTTCTAACCTGTTGCCT (site GGAATGCCTAG) | 0.0669 |
| GGAATTCCTTGGGTTCTAACCTGTTGCCT (site GGAATTCCTAG) | 0.0376 |
| GGACAATCTTGGGTTCTAACCTGTTGCCT (site GGACAATCTAG) | 1.53 |
| GGACAATCTTGGGTTCTAACCTGTTGCCT (site GGACCATCTAG) | 0.174 |
| GGACAATCTTGGGTTCTAACCTGTTGCCT (site GGACGATCTAG) | 0.376 |
| GGACAATCTTGGGTTCTAACCTGTTGCCT (site GGACTATCTAG) | 0.0608 |
| GGACATGCTTGGGTTCTAACCTGTTGCGT (site CGACATACTAC) | 0.219 |
| GGACATGCTTGGGTTCTAACCTGTTGCGT (site GGACATGCTAC) | 2.7 |
| GGACCGCCTTGGGTTCTAACCTGTTGCCT (site CGATCGCCTAG) | 0.129 |
| GGACCGCCTTGGGTTCTAACCTGTTGCCT (site GGACCGCCTAG) | 0.626 |
| GGACGAGCTTGGGTTCTAACCTGTTGCTG (site ATCTATACTAG) | 0.0905 |
| GGACGAGCTTGGGTTCTAACCTGTTGCTG (site GGACGAGCTCA) | 2.46 |
| GGACGGACTTGGGTTCTAACCTGTTGCCA (site GGACGGACTTG) | 1.68 |
| GGACGGACTTGGGTTCTAACCTGTTGCCA (site GGTCGGACTTG) | 0.417 |
| GGACTATCTTGGGTTCTAACCTGTTGCCT (site GGACAATCTAG) | 0.104 |

| Sequence | recombinant barcode read abundance (log10) |
| --- | --- |
| GGACTATCTTGGGTTCTAACCTGTTGCCT (site GGACCATCTAG) | 0.297 |
| GGACTATCTTGGGTTCTAACCTGTTGCCT (site GGACGATCTAG) | 0.011 |
| GGACTATCTTGGGTTCTAACCTGTTGCCT (site GGACTATCTAG) | 1.18 |
| GGACTCACTTGGGTTCTAACCTGTTGCCT (site GGACTCACTAG) | 1.77 |
| GGACTCACTTGGGTTCTAACCTGTTGCCT (site GGATTCTCTAG) | 0.15 |
| GGAGAACCTTGGGTTCTAACCTGTTGCCT (site AGAGAACCTAG) | 1.85 |
| GGAGAACCTTGGGTTCTAACCTGTTGCCT (site CGAGAACCTAG) | 0.492 |
| GGAGAACCTTGGGTTCTAACCTGTTGCCT (site GGAGAACCTAG) | 2.48 |
| GGAGAACCTTGGGTTCTAACCTGTTGCCT (site TGAGAACCTAG) | 1.56 |
| GGAGAGGCTTGGGTTCTAACCTGTTGCCT (site GGAGAAGCTAG) | 0.893 |
| GGAGAGGCTTGGGTTCTAACCTGTTGCCT (site GGAGACGCTAG) | 0.143 |
| GGAGAGGCTTGGGTTCTAACCTGTTGCCT (site GGAGAGGCTAG) | 1.54 |
| GGAGAGGCTTGGGTTCTAACCTGTTGCCT (site GGAGATGCTAG) | 0.0967 |
| GGAGATGCTTGGGTTCTAACCTGTTGCCT (site GGAGAAGCTAG) | 0.783 |
| GGAGATGCTTGGGTTCTAACCTGTTGCCT (site GGAGACGCTAG) | 0.291 |
| GGAGATGCTTGGGTTCTAACCTGTTGCCT (site GGAGAGGCTAG) | 0.226 |
| GGAGATGCTTGGGTTCTAACCTGTTGCCT (site GGAGATGCTAG) | 1.74 |
| GGAGCAGCTTGGGTTCTAACCTGTTGCCT (site GGAGCACCTAG) | 0.223 |
| GGAGCAGCTTGGGTTCTAACCTGTTGCCT (site GGAGCAGCTAG) | 1.16 |
| GGAGCCTCTTGGGTTCTAACCTGTTGCTC (site GGAGCCTCTGA) | 1.7 |
| GGAGCCTCTTGGGTTCTAACCTGTTGCTC (site GGGGCCTCTCA) | 0.177 |
| GGAGCTCCTTGGGTTCTAACCTGTTGCCG (site ACTCACACTAA) | 0.152 |

| Sequence | recombinant barcode read abundance (log10) |
| --- | --- |
| GGAGCTCCTTGGGTTCTAACCTGTTGCCG (site GGAGCTCCTCG) | 0.846 |
| GGAGGGTCTTGGGTTCTAACCTGTTGCTT (site AGAGGGTCTAA) | 0.693 |
| GGAGGGTCTTGGGTTCTAACCTGTTGCTT (site CGAGGGTCTAA) | 0.229 |
| GGAGGGTCTTGGGTTCTAACCTGTTGCTT (site GGAGGGTCTAA) | 1.72 |
| GGAGGGTCTTGGGTTCTAACCTGTTGCTT (site TGAGGGTCTAA) | 0.292 |
| GGATACACTTGGGTTCTAACCTGTTGCCG (site GGATACACTCG) | 1.66 |
| GGATACACTTGGGTTCTAACCTGTTGCCG (site TAGACGGCTAT) | 0.342 |
| GGATACACTTGGGTTCTAACCTGTTGCGT (site GGATACACTAC) | 2.76 |
| GGATACACTTGGGTTCTAACCTGTTGCGT (site GGATAGACTAC) | 0.0769 |
| GGATCCACTTGGGTTCTAACCTGTTGCCT (site AGATCCACTAG) | 0.306 |
| GGATCCACTTGGGTTCTAACCTGTTGCCT (site CGATCCACTAG) | 0.0861 |
| GGATCCACTTGGGTTCTAACCTGTTGCCT (site GGATCCACTAG) | 0.399 |
| GGATCCACTTGGGTTCTAACCTGTTGCCT (site TGATCCACTAG) | 0.139 |
| GGATCCTCTTGGGTTCTAACCTGTTGCAT (site GGATCCTCTAT) | 1.69 |
| GGATCCTCTTGGGTTCTAACCTGTTGCAT (site GGCTCCTCTAT) | 0.149 |
| GGATCTACTTGGGTTCTAACCTGTTGCCT (site GAATCTACTAG) | 0.174 |
| GGATCTACTTGGGTTCTAACCTGTTGCCT (site GCATCTACTAG) | 0.514 |
| GGATCTACTTGGGTTCTAACCTGTTGCCT (site GGATCTACTAG) | 0.235 |
| GGATCTACTTGGGTTCTAACCTGTTGCCT (site GTATCTACTAG) | 0.0262 |
| GGATTGTCTTGGGTTCTAACCTGTTGCTT (site GGATTGTCTAA) | 0.742 |
| GGATTGTCTTGGGTTCTAACCTGTTGCTT (site GGCTAGTCTAA) | 0.0862 |
| GGCACAACTTGGGTTCTAACCTGTTGCCT (site GGCACAACTAG) | 0.804 |

| Sequence | recombinant barcode read abundance (log10) |
| --- | --- |
| GGCACAACTTGGGTTCTAACCTGTTGCCT (site GGCACCACTAG) | 0.0796 |
| GGCACAACTTGGGTTCTAACCTGTTGCCT (site GGCACGACTAG) | 0.262 |
| GGCACAACTTGGGTTCTAACCTGTTGCCT (site GGCACTACTAG) | 0.0426 |
| GGCACAGCTTGGGTTCTAACCTGTTGCCT (site GGCACAGCTAG) | 0 |
| GGCACAGCTTGGGTTCTAACCTGTTGCCT (site GGCACCGCTAG) | 0.171 |
| GGCACAGCTTGGGTTCTAACCTGTTGCCT (site GGCACGGCTAG) | 0.067 |
| GGCACAGCTTGGGTTCTAACCTGTTGCCT (site GGCACTGCTAG) | 0.0566 |
| GGCACCACTTGGGTTCTAACCTGTTGCCG (site GGCACCACTCG) | 0.295 |
| GGCACCACTTGGGTTCTAACCTGTTGCCG (site TCTTGACCTAA) | 0.251 |
| GGCACCACTTGGGTTCTAACCTGTTGCCT (site GGCACAACTAG) | 0.0402 |
| GGCACCACTTGGGTTCTAACCTGTTGCCT (site GGCACCACTAG) | 0.722 |
| GGCACCACTTGGGTTCTAACCTGTTGCCT (site GGCACGACTAG) | 0.0916 |
| GGCACCACTTGGGTTCTAACCTGTTGCCT (site GGCACTACTAG) | 0.0174 |
| GGCACTACTTGGGTTCTAACCTGTTGCCT (site GGCACAACTAG) | 0.0867 |
| GGCACTACTTGGGTTCTAACCTGTTGCCT (site GGCACCACTAG) | 0.716 |
| GGCACTACTTGGGTTCTAACCTGTTGCCT (site GGCACGACTAG) | 0.166 |
| GGCACTACTTGGGTTCTAACCTGTTGCCT (site GGCACTACTAG) | 0.392 |
| GGCAGCTCTTGGGTTCTAACCTGTTGCTT (site GGCAGATCTAA) | 0.367 |
| GGCAGCTCTTGGGTTCTAACCTGTTGCTT (site GGCAGCTCTAA) | 0.281 |
| GGCAGCTCTTGGGTTCTAACCTGTTGCTT (site GGCAGGTCTAA) | 0.302 |
